Assay results published in US7781428B2 (Pfizer Inc., priority 2006, dated 2010).
Where a name gives a salt, the structure may show the parent alone.

What follows are compounds tested against T1, mineralocorticoid receptor (MR) (Homo sapiens, UniProt P08235) (assay: Cell-based Gal4 response element-controlled luciferase reporter assay (MR antagonism)). Details: Huh7 human liver cells transfected with Gal4 DBD-MR LBD fusion and luciferase reporter; block of agonist-induced activation; overnight incubation.
T1 construct: expressed in transfected cells; host or cells: Huh7 (human liver cells)
T1 sequence (P08235 726-964 limits assumed): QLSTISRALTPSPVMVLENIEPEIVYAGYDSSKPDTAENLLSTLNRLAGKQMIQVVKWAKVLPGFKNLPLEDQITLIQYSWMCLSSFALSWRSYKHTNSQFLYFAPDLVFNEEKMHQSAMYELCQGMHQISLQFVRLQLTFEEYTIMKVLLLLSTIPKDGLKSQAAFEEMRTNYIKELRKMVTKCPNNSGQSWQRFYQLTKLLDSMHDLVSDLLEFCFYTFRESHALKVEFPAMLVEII
Excerpt: Method 1: Cell-based Gal4 Response Element-controlled Luciferase Reporter Assay
An in vitro assay can be used to evaluate mineralocorticoid receptor (MR) antagonism by a test compound. […] An agonist of the receptor can bind to and activate the receptor LBD, which activate the expression of the Gal4 response element containing luciferase reporter gene. Antagonists can compete for binding to the receptor LBDs and decrease the transcription activity of the reporter gene. Measurement of luciferase activity allows quantitative determinations of the reporter transcription in the presence of either agonists or agonists and antagonists in combination. β-galactosidase activity, which is unaffected by ligand, is used to normalize the transfection efficiency in the cell population.
Huh7 cells were plated in RPMI1640+10% fetal bovine serum (Invitrogen Corporation, San Diego, Calif.), at 10,000 cells per well in 96-well tissue culture dishes for approximately 24 hours. Cells were then transfected using FuGENE™ 6 Transfection Reagent according to manufacturers' instructions (Roche Molecular Biochemicals, Indianapolis, Ind.). Approximately 20 hours after transfection, media were removed. Cells were washed once with PBS and treated (n=6/group) with agonist for each receptor (all chemicals from Sigma, St. Louis, Mo.), and with compounds. Agonist concentrations represent 70-80% of full activation of each receptor.
Compounds were dissolved in DMSO at 10 mM and diluted to final concentrations in phenol red-free media that contained 10% charcoal- and dextran-stripped serum (Life Technologies, Gathersburg, Md.). Following overnight incubation (18-20 hours) with compounds, the medium was removed and replaced with 100 μL per well of PBS and 100 μL of Steady-Glo™ lysis buffer with luciferase substrate (Promega Corporation, Madison, Wis.). After a 30-minute incubation to completely lyse the cells, 100 μL of the lysate was transferred to a black, Dynatech Microfluor assay plates (Dynex Corporation, Chantilly, Va.) to measure luciferase activity. The plate was sealed with TopSeal self-adhesive film, dark-adapted for 5 minutes, then counted in a TopCount Plate Reader (Packard Instrument Company, Meriden, Conn.) in single photon counting mode. The remaining lysate was used for determination of β-galactosidase activity. In a clear 96-well assay plate, 100 μL of cell lysate was added to 100 μL β-galactosidase assay buffer per well. The assay buffer consisted of 60 mM Na2HPO4, 40 mM NaH2PO4, 10 mM KCl, 1 mM MgSO4, 50 mM β-mercaptoethanol, and 2.5 mg/mL ONPG, the latter two reagents were added just prior to assay (all chemicals from Sigma). The reaction was allowed to proceed until a distinct yellow color developed. Reactions were stopped by the addition of 100 μL per well 1 M Na2CO3 and plates were read at 420 nm in Victor-2 (Perkin Elmer Life Sciences, Boston, Mass.). Values (relative luciferase activity) for each sample were expressed as a ratio of luciferase activity to OD420β-galactosidase activity measured in arbitrary units for each well. […] “b” is the slope, “c” is the IC50 or EC50. “x” is the concentration of the compound and “y” the activity at that concentration.
In the case of `N#Cc1ccc(N2N=C3c4ccc(C(=O)O)cc4OC[C@@H]3[C@@H]2c2ccc(F)cc2)cc1` [Example 59, (3R,3aR)-2-(4-cyanophenyl)-3-(4-fluorophenyl)-2,3,3a,4-tetrahydrochromeno[4,3-c]pyrazole-7-carboxylic acid], the IC50 is reported as greater than 1000 nM.
`Cc1ccc([C@H]2[C@H]3CCc4cc(C(=O)O)ccc4C3=NN2c2ccc(C#N)c(Cl)c2)o1` [Example 40, (3R,3aR)-2-(3-chloro-4-cyanophenyl)-3-(5-methyl-2-furyl)-3,3a,4,5-tetrahydro-2H-benzo[g]indazole-7-carboxylic acid] was tested, and the IC50 was 6 nM.
`N#Cc1ccc(N2N=C3c4ccc(C(=O)O)cc4CCC3C2c2ccco2)cc1Cl` (racemic) [Example 43, 2-(3-chloro-4-cyanophenyl)-3-(2-furyl)-3,3a,4,5-tetrahydro-2H-benzo[g] indazole-7-carboxylic acid] gave an IC50 of 21 nM.
Work on `Cc1cc(N2N=C3c4ccc(C(=O)O)cc4OCC3C2C(C)C)ccc1C#N` (centres unmarked) [Example 73, 2-(4-cyano-3-methylphenyl)-3-isopropyl-2,3,3a,4-tetrahydrochromeno[4,3-c]pyrazole-7-carboxylic acid] yielded an IC50 of 167 nM.
`Cc1ccc([C@H]2[C@H]3CCc4cc(C(=O)NCCS(C)(=O)=O)ccc4C3=NN2c2ccc(C#N)c(Cl)c2)o1` [Example 117, (3R,3aR)-2-(3-chloro-4-cyanophenyl)-3-(5-methyl-2-furyl)-N-[2-(methylsulfonyl)ethyl]-3,3a,4,5-tetrahydro-2H-benzo[g]indazole-7-carboxamide] was tested, and the IC50 was 3 nM.
`N#Cc1ccc(N2N=C3c4ccc(C(=O)O)cc4CCC3C2C2CCNCC2)cc1Cl` (racemic) [Example 38, 2-(3-chloro-4-cyanophenyl)-3-(piperidin-4-yl)-3,3a,4,5-tetrahydro-2H-benzo[g]indazole-7-carboxylic acid trifluoroacetate] was tested, and the IC50 was greater than 1000 nM.
`N#Cc1ccc(N2N=C3c4ccc(C(=O)O)cc4CC[C@H]3[C@H]2C2CCCC2)cc1` [Example 20, (3R,3aS)-2-(4-cyanophenyl)-3-cyclopentyl-3,3a,4,5-tetrahydro-2H-benzo[g]indazole-7-carboxylic acid] showed an IC50 of 2880 nM.
Work on `N#Cc1ccc(N2N=C3c4ccc(C(=O)O)cc4CCC3C2C2CCOCC2)cc1` (racemic) [Example 37, 2-(4-cyanophenyl)-3-(tetrahydro-2H-pyran-4-yl)-3,3a,4,5-tetrahydro-2H-benzo[g]indazole-7-carboxylic acid] yielded an IC50 greater than 1000 nM.
Work on `N#Cc1ccc(N2N=C3c4ccc(C(=O)NCC(=O)NCC(=O)O)cc4CC[C@@H]3[C@@H]2c2ccc(F)cc2)cc1Cl` (racemic) [Example 110, (±)-2-(2-((3RS,3aRS)-2-(3-chloro-4-cyanophenyl)-3-(4-fluorophenyl)-3,3a,4,5-tetrahydro-2H-benzo[g]indazole-7-carboxamido)acetamido)acetic acid] yielded an IC50 greater than 1000 nM.
In the case of `Cc1cc(N2N=C3c4ccc(C(=O)O)cc4CC[C@H]3[C@H]2C2CCCC2)ccc1C#N` (single isomer, unassigned) [Example 23], the IC50 is reported as greater than 500 nM.
In the case of `N#Cc1ccc(N2N=C3c4ccc(C(=O)O)cc4CC[C@@H]3[C@@H]2C2CCCC2)cc1O` (racemic) [Example 33], the IC50 is reported as greater than 500 nM.
`CN(C)Cc1cc(N2N=C3c4ccc(C(=O)O)cc4CCC3C2C2CCCC2)ccc1C#N` (racemic) [Example 29, 2-(4-cyano-3-((dimethylamino)methyl)phenyl)-3-cyclopentyl-3,3a,4,5-tetrahydro-2H-benzo[g]indazole-7-carboxylic acid trifluoroacetate] showed an IC50 greater than 1000 nM.
In the case of `N#Cc1ccc(N2N=C3c4ccc(C(=O)O)cc4CC[C@@H]3[C@@H]2c2ccc(F)cc2)cc1Cl` [Example 3, (3R,3aR)-2-(3-chloro-4-cyanophenyl)-3-(4-fluorophenyl)-3,3a,4,5-tetrahydro-2H-benzo[g]indazole-7-carboxylic acid], the IC50 is reported as 40.7 nM.
Work on `N#Cc1ccc(N2N=C3c4ccc(C(=O)O)cc4OCC3C2C2CCCC2)cc1Cl` (racemic) [Example 67, 2-(3-chloro-4-cyanophenyl)-3-cyclopentyl-2,3,3a,4-tetrahydrochromeno[4,3-c]pyrazole-7-carboxylic acid] yielded an IC50 of 146 nM.
